The source made the active and inactive calls. No cut-off for these calls is given here.
Experiments:
[1] = AUC (0 to infinity) in Sprague-Dawley rat at 5 mg/kg, iv measured up to 24 hrs by LC-MS/MS analysis; assay type: ADME, organism-based; set-up: dose 5 mg/kg, time < 24 hrs, route iv; details: in vivo
[2] = Cytotoxicity against human LX2 cells assessed as reduction in cell viability measured after 72 hrs by MTT assay; assay type: toxicity, cell-based, LX-2
[3] = AUC (0 to t) in Sprague-Dawley rat at 10 mg/kg, po measured up to 24 hrs by LC-MS/MS analysis; assay type: ADME, organism-based; set-up: dose 10 mg/kg, time < 24 hrs, route po; details: in vivo
[4] = system: Mus musculus; assay: Anti-psoriatic activity in IMQ-induced BALB/c psoriasis mouse model assessed as reduction in IL-17f expression at 5 to 20 mg/kg, po by qRT-PCR analysis; assay type: functional, organism-based; details: dose 5-20 mg/kg
[5] = system: Mus musculus; assay: Anti-psoriatic activity in IMQ-induced BALB/c psoriasis mouse model assessed as reduction in scaling at 0.1 to 1 % treated topically by H and E staining based analysis; assay type: functional, organism-based; details: dose 0.1-1 %
[6] = target: T1, Aryl hydrocarbon receptor (Homo sapiens, UniProt P35869); assay: Induction of Ahr signalling in human HaCaT cells assessed as upregulation of IVL expression incubated for 48 hrs; assay type: cell-based
T1 sequence (P35869 whole entry): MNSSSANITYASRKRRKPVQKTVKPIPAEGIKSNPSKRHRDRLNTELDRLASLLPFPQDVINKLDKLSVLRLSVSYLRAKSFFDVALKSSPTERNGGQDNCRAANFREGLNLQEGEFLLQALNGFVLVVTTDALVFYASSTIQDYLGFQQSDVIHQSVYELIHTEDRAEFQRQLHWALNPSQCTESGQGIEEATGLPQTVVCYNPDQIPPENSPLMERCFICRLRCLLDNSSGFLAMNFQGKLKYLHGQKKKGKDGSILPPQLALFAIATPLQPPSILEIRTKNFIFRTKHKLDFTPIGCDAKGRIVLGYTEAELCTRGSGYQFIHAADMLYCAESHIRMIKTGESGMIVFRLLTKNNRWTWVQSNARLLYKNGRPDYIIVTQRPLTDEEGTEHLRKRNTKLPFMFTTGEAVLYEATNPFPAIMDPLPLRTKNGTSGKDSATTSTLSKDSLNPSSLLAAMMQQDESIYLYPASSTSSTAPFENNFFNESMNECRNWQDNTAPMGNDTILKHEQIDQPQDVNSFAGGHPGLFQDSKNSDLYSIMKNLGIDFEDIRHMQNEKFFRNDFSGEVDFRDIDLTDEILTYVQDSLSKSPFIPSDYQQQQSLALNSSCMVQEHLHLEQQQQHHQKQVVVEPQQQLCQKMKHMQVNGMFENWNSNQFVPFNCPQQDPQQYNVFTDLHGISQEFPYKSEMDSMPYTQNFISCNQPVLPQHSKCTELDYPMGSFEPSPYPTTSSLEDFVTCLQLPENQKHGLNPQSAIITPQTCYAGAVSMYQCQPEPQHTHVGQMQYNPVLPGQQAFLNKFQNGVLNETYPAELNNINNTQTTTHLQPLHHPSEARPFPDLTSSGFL

[7] = system: Mus musculus; assay: Anti-psoriatic activity in IMQ-induced BALB/c psoriasis mouse model assessed as reduction in IL-17a expression at 5 to 20 mg/kg, po by qRT-PCR analysis; assay type: functional, organism-based; details: dose 5-20 mg/kg
[8] = Clearance in Sprague-Dawley rat at 5 mg/kg, iv measured up to 24 hrs by LC-MS/MS analysis; assay type: ADME, organism-based; details: in vivo
[9] = target: Voltage-gated inwardly rectifying potassium channel KCNH2 (Homo sapiens, UniProt Q12809); assay: Inhibition of hERG channel in HEK293 cells by whole-cell patch clamp assay; assay type: toxicity, cell-based
[10] = system: HaCaT; assay: Downregulation of CYP1A1 gene expression in AhR knockdown human HaCaT cells incubated for 48 hrs by qRT-PCR analysis; assay type: functional, cell-based
[11] = Tmax in Sprague-Dawley rat at 10 mg/kg, po measured up to 24 hrs by LC-MS/MS analysis; assay type: ADME, organism-based; details: in vivo
[12] = target: Cytochrome P450 3A4 (Homo sapiens, UniProt P08684); assay: Inhibition of CYP3A4 in human liver microsomes in presence of NADPH by LC-MS/MS analysis; assay type: ADME, Microsome
[13] = AUC (0 to t) in Sprague-Dawley rat at 5 mg/kg, iv measured up to 24 hrs by LC-MS/MS analysis; assay type: ADME, organism-based; set-up: dose 5 mg/kg, time < 24 hrs, route iv; details: in vivo
[14] = system: Mus musculus; assay: Anti-psoriatic activity in IMQ-induced BALB/c psoriasis mouse model assessed as reduction in IL-17f expression at 0.1 to 1 % treated topically by qRT-PCR analysis; assay type: functional, organism-based; details: dose 0.1-1 %
[15] = system: Mus musculus; assay: Anti-psoriatic activity in IMQ-induced BALB/c psoriasis mouse model assessed as reduction in erythema at 5 to 20 mg/kg, po by H and E staining based analysis; assay type: functional, organism-based; details: dose 5-20 mg/kg
[16] = target: T1, Aryl hydrocarbon receptor; assay: Agonist activity at AhR signalling in human HaCaT cells assessed as increase in CYP1A1 mRNA expression by qRT-PCR analysis; assay type: cell-based; details: 10 µM, DDE = dose-dependent effect
[17] = Cytotoxicity against human BEAS-2B cells assessed as reduction in cell viability measured after 72 hrs by MTT assay; assay type: toxicity, cell-based
[18] = MRT in Sprague-Dawley rat at 5 mg/kg, iv measured up to 24 hrs by LC-MS/MS analysis; assay type: ADME, organism-based; details: in vivo
[19] = Oral bioavailability in Sprague-Dawley rat at 10 mg/kg measured up to 24 hrs by LC-MS/MS analysis; assay type: ADME, organism-based; details: in vivo
[20] = target: Cytochrome P450 2C19 (Homo sapiens, UniProt P33261); assay: Inhibition of CYP2C19 in human liver microsomes in presence of NADPH by LC-MS/MS analysis; assay type: ADME, Microsome
[21] = target: T1, Aryl hydrocarbon receptor; assay: Induction of Ahr nuclear translocation from cytoplasm to nucleus in human HaCaT cells at 0.01 uM incubated for 1 hr by Western blot analysis; assay type: cell-based
[22] = AUC (0 to infinity) in Sprague-Dawley rat at 10 mg/kg, po measured up to 24 hrs by LC-MS/MS analysis; assay type: ADME, organism-based; set-up: time < 24 hrs, dose 10 mg/kg, route po; details: in vivo

Cytochrome P450 2C19, sequence (P33261 whole entry): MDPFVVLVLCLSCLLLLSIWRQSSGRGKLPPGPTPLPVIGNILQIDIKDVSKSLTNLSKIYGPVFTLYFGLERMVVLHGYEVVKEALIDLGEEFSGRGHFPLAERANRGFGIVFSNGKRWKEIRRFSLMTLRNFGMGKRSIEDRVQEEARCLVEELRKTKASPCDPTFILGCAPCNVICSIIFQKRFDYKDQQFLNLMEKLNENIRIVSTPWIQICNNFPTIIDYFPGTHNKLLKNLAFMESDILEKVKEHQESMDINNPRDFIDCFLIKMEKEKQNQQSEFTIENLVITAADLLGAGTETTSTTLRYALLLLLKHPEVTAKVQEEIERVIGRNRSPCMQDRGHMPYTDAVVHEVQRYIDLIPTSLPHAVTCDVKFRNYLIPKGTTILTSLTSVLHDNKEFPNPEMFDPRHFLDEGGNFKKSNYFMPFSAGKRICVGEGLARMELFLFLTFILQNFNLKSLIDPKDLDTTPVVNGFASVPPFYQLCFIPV
Cytochrome P450 3A4, sequence (P08684 whole entry): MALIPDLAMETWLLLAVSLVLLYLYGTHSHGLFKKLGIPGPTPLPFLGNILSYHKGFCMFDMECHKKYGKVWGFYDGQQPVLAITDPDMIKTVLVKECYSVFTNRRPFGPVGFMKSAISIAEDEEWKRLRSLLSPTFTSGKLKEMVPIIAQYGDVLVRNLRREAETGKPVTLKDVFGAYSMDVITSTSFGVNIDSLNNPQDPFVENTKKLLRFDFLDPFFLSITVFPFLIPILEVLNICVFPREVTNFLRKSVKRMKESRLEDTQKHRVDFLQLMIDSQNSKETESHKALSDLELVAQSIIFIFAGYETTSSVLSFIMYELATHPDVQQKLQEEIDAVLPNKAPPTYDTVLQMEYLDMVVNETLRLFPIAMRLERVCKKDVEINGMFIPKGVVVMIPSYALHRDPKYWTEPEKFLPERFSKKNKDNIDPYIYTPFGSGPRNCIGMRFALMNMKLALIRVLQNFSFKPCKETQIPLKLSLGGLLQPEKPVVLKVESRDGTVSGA
Voltage-gated inwardly rectifying potassium channel KCNH2, sequence (Q12809 whole entry): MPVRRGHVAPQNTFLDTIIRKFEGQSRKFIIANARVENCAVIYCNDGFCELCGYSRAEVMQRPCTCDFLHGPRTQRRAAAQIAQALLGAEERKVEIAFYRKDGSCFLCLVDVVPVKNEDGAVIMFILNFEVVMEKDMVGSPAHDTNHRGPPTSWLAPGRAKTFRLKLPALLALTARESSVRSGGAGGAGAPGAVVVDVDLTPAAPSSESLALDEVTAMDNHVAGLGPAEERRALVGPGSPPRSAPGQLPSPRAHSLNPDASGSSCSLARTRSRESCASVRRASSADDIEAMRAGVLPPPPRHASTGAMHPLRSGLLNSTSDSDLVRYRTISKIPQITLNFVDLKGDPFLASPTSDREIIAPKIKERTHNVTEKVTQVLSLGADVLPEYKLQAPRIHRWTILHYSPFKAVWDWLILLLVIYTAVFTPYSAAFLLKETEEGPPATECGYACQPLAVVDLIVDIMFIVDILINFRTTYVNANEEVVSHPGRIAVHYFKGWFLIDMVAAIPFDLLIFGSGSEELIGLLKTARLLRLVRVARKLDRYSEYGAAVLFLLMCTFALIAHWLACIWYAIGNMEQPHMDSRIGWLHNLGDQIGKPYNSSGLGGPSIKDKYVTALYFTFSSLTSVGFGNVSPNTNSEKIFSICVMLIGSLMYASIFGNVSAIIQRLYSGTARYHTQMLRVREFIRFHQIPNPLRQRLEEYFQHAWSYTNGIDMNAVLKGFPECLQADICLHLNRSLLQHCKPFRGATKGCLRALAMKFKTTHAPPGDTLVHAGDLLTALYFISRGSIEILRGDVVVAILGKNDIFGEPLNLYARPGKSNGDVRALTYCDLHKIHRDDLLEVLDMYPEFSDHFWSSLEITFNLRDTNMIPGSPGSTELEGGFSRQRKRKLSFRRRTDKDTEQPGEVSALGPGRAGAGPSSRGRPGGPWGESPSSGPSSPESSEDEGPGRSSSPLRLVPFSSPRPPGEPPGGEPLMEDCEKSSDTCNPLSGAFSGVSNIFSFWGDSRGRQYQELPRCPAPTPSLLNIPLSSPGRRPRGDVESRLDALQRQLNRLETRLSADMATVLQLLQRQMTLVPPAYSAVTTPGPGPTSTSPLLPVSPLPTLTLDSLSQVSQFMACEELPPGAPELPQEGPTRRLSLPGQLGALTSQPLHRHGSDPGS

- AUC(0-inf) [1]: 4640 ng·h/mL
- AUC(0-t) at 24 h [3]: 1400 ng·h/mL
- Activity [6]: Active
- clearance [8]: 19 mL/min/kg
- Tmax [11]: 49.8 min
- IC50 [12]: > 10 µM
- AUC(0-t) at 24 h [13]: 4640 ng·h/mL
- Activity [16]: Dde
- MRT [18]: 53.4 min
- bioavailability [19]: 15.1%
- IC50 [20]: > 10 µM
- Activity [21]: Active
- AUC(0-inf) [22]: 1420 ng·h/mL
SMILES: Brc1ccc(-c2nc3ccc(Br)cn3n2)cc1
- IC50 at 72 h [2]: > 300 µM
- Activity [4]: Active
- Activity [5]: Active
- Activity [7]: Active
- IC50 [9]: > 10 µM
- Activity [10]: Active
- Activity [14]: Active
- Activity [15]: Active
- IC50 at 72 h [17]: > 300 µM

Source: ChEMBL document CHEMBL5154726, “Identification of triazolopyridine derivatives as a new class of AhR agonists and evaluation of anti-psoriasis effect in a mouse model” (Eur J Med Chem, 2022)
